In general, viability refers to the share of living cells, or the viability signal relative to a control. A lower viability goes with a greater loss of cells. By IC50 is commonly meant the concentration that gives 50% inhibition. For orientation: pIC50 means the negative decadic logarithm of the IC50, by convention in mol/L. In general, EC50 refers to the concentration needed to bring the measured effect to its halfway point. A high value points to lower potency in that assay.

A short description of series [1]: Cell Titre Blue viability assay, HEK-293. The class given is cell-based. The settings on record: human, HEK-293 cells, HEK-293, 10 μM, vs DMSO. An excerpt:
In all assays, a DMSO control was always used.

In series [2] the test system is MDA-MB-231 cells overexpressing Bcl-3. The series can be described thus: Boyden chamber cell motility assay. The class given is cell-based, human. The settings on record: for IC50 / pIC50: Homo sapiens; for IC50: MDA-MB-231, Table 3, read-out: Cell motility assay (μM) IC50; for pIC50: read-out: IC50 cell motility (Boyden chamber). How it is done:
The migratory or invasive capacity of human mammary cancer cell lines was assessed by the Boyden chamber assay. Cells were seeded in low serum media in a chamber with porous membrane (transparent polyethylene terephthalate (PET) membranes with 8 μm pores) as a solid support for motility assays or with a porous membrane coated with Matrigel Basement Membrane Matrix (BD BioCoat Growth factor reduced invasion chambers) for invasion assay. The cell insert was placed into a well with complete growth media, therefore cells are stimulated by a serum gradient to migrate or invade across the membrane through pores.
Total of 750 μl of complete growth media containing 10% of serum was added to appropriate wells of a 24 well cell culture insert companion plate (BD Biosciences, Oxford, UK). A cell culture insert (BD Biosciences, Oxford, UK) was then carefully placed into each well of the insert companion plate using tweezers. Cells were detached from tissue culture plates using 0.25% w/v Trypsin/EDTA (Invitrogen) and centrifuged at 13000 rpm for 5 min. Cells were washed twice in serum free media by resuspension and centrifugation. The appropriate number of cells (2×10^5 cells/ml for MDA-MB-231 cells) was resuspended in normal growth media containing only 0.10% serum. 350 μl of the cell suspension was added to the appropriate upper chambers of the cell culture inserts and plates were incubated for 24 hrs at 37° C. and 5% CO2.
After incubation, cells on membranes were fixed by replacing the media in the top and bottom sections of the chamber with 70% ice-cold ethanol (Fisher Scientific). Plates were incubated at −20° C. for at least an hour. After fixation, inserts were immersed in a tap water using tweezers to ensure all ethanol was removed. A moistened cotton wool bud was then used to mechanically remove all cells fixed on the upper side of the membranes. Cells were stained by individually immersing the inserts into filtered Harris' Haematoxylin (Sigma, Dorset, UK) for 1 min. Following this, inserts were washed in a beaker of tap water to remove the dye and immersed in 0.5% filtered Eosin (Sigma, Dorset, UK) for 2 min. Stained inserts were then washed again in a tap water.
Glycerol Gelatin (Sigma, Dorset, UK) was heated in a beaker of boiling water and once liquefied, a drop was placed onto an appropriately labelled microscope slide (R. A. Lamb, Loughborough, UK). Membranes were cut out of the insert and transferred onto the corresponding slide with tweezers. Glycerol Gelatin was added to the top of the membranes and a cover slip was placed on the slide under firm pressure. Mounted slides were left to air dry before being analyzed.
We therefore generated a dose response curve to determine an IC50 in this assay. MDA-MB-231 cells overexpressing Bcl-3 were cultivated with Compound 1a and DMSO control over a range of molarities for 24 hrs before being seeded onto Boyden migration chambers. The constant number of live cells present during this assay across samples was monitored by cell count.
Therefore we wanted to establish whether designed analogues have similar or improved ability to suppress cell migration. MDA-MB-231 Bcl-3 over-expressing cells were cultivated with selected analogues (1f, 2a, 2c, 3a) and DMSO control over a range of molarities for 24 hrs before being seeded onto the Boyden motility chambers. Migrated cells were visualized and counted after 24 hrs. The dose response curves were generated using GraphPad software (FIG. 9). The constant number of live cells present during this assay across samples was monitored by cell count.

Series [3] in a line: Cell Titre Blue viability assay, MDA-MB-231. The settings on record: human, MDA-MB-231 cells.
Experimental: The viability of cells at experimental endpoints for particular assays was determined using the Cell Titre Blue reagent (Promega, Southampton, UK). This reagent measures the cellular metabolic activity using resazurin as an indicator dye. Viable cells, therefore metabolically active, will reduce resazurin into highly fluorescent resofurin. The resulting fluorescence levels are measured and indicate cell viability.
Cells were plated at low confluency into 96 well plates in 100 μl of complete growth media in triplicates and were incubated at 37° C. in 5% CO2 for the desired test exposure period. For each 100 μl of media in 96 well plates, 20 μl Cell Titre Blue reagent was added followed by incubation for an hour at 37° C. in 5% CO2. Fluorescence was then measured by setting excitation/emission wavelengths to 560/590 nm on a Flurostar Optima plate reader (BMG tabtech, Bucks, UK).
Cell toxicity was evaluated using the Cell Titre Blue viability assay over a range of molarities for 24 hrs.
Selected compounds were dissolved in DMSO and diluted to a highest concentration of 10 μM (0.1% DMSO). In all assays, a DMSO control was always used. Selected compounds were tested for cell toxicity in HEK-293 and MDA-MB-231 cells before being used in cell-based assays. Cell toxicity was evaluated using the Cell Titre Blue viability assay over a range of molarities for 24 hrs
The subject of series [4] is NF-κB activity. Put plainly: NF-κB luciferase reporter assay in MDA-MB-231 cells overexpressing Bcl-3. The class given is cell-based, human. The settings on record: for effect on NF-κB activity: 1 μM, 24 hrs, MDA-MB-231 Bcl-3 over-expressing cells, vs DMSO control / Compound 1a; for pIC50 / IC50: Homo sapiens; for pIC50: read-out: IC50 NF-κB activity; for IC50: Table 3, MDA-MB-231, read-out: NF-κB assay (μM) IC50. How it is done:
For NF-κB luciferase assays, cells were seeded into clear bottom black 96-well plates (Corning Inc., Lowell, US) in antibiotic free culture media in appropriate density. After 24 hrs, cells were transfected with 10 ng of 3×κB luciferase plasmid and 10 ng of pcDNA3.1-Lacl plasmid per well. Empty pcDNA3.1 plasmid was also included to normalize the total weight of DNA transfected to 100 ng. For positive and negative controls respectively, 10 ng of pGL3control or pGL3basic were transfected in place of 3×KB luciferase plasmid. Transfection was carried out using Lipofectamine LTX reagents (Invitrogen, Paisley, UK).
After 48 hrs post-transfection with luciferase reporter plasmid, the media was aspirated and cells were lyzed using 50 μl/well of Glo-lysis buffer (Promega, Southampton, UK). The plate was left on a rocker for 20 min to facilitate complete cell lysis. Then, 20 μl of lysate from each well was removed and transferred into a new clear bottom black well plate for measuring LacZ activity as a transfection efficiency control and followed by addition of 20 ul/well of Beta-Glo substrate (Promega, Southampton, UK) and cultivation at room temperature for at least 20 min. Subsequently, 30 μl/well of Bright-Glo luciferase substrate (Promega, Southampton, UK) was added to the original plate and asses immediately for luminescence activity. The luminescence produced from either reaction was read using a Flurostar Optima plate reader (BMG tabtech, Bucks, UK).
The effect of Compound 1a on NF-κB activity was determined by NF-κB luciferase assay in MDA-MB-231 and HEK-293 cells overexpressing Bcl-3 and HEK-293 cells overexpressing p52. Cells were cultivated with Compound 1a over a range of molarities for 24 hrs before being transfected with NF-κB luciferase reporter plasmid for 48 hrs and analyzed for NF-κB activity.
The effect of selected analogues on NF-κB activity was determined by NF-KB luciferase assay in MDA-MB-231 cells. MDA-MB-231 Bcl-3 over-expressing cells were cultivated with compounds from series 1-3 at 1 μM concentration for 24 hrs before being transfected with NF-κB luciferase reporter plasmid for 48 hrs together with controls and analyzed for NF-κB activity.
Based on the results for the series of analogues, we have established dose response curve for selected analogues from series 1 (If), from series 2 (2a and 2c) and from series 3 (3a) over a range of molarities. MDA-MB-231 Bcl-3 WT cells were cultivated with selected compounds from series 1-3 over a range of molarities for 24 hrs before being transfected with NF-κB luciferase reporter plasmid for 48 hrs together with controls and analyzed for NF-κB activity (FIG. 7).
(In general: Reporter assays use an easily measured gene product as a stand-in for the process of interest.)

Setting [5] is: MDA-MB-231 overexpressing Bcl-3, 24 hrs pre-treatment, 24 hrs migration.
Where [6] appears, read: MDA-MB-231 Bcl-3 WT, 24 hrs then reporter 48 hrs.
Setting [7] is: MDA-MB-231 overexpressing Bcl-3, 24 hrs then reporter 48 hrs.

pIC50: −log10 of the molar value. Entries after “also recorded” stand apart in the source; their conditions may differ. Read-outs that look alike come from different tables or passages of the source. Bounds are passed on as bounds.

With `COc1cccc(C(=O)NCCN2CCOCC2)c1NC(=O)c1ccccc1F` [Compound 3a, 2-[(2-fluorobenzoyl)amino]-3-methoxy-N-(2-morpholin-4-ylethyl) benzamide], the viability at 24 h, 10 µM in series [1] and in series [3] was over 70% each time. The IC50 in series [2] is 0.9 µM; in series [4] it was 1.07 µM. Further, the values for the pIC50 in series [2] (setting [5]) and in series [4] (setting [6]) were 6.05 and 5.97, respectively. Moreover, in series [4], the “effect on NF-κB activity” value is “comparable effect on NF-κB activity with Compound 1a”.
For `COc1ccc(C(=O)Nc2ccccc2C(=O)NCCN2CCOCC2)cc1` [Compound 1f, 2-[(4-methoxybenzoyl)amino]-N-(2-morpholin-4-ylethyl)benzamide], the viability at 24 h, 10 µM in series [1] and in series [3] was over 70% each time. Besides, in series [2] (10 nM concentration), the cell migration result was “below 50%”. In addition, the IC50 was 0.0289 µM in series [2] and 0.00697 µM in series [4]. Also, the pIC50 in series [2] (setting [5]) was 7.54; in series [4] (setting [7]) it was 8.16. The same molecule returned an EC50 at 24 h in series [3] of 781 µM. For the same molecule, the “effect on NF-κB activity” value in series [4] is listed as “significant decrease”.
Regarding `O=C(Nc1ccccc1C(=O)NCCCN1CCOCC1)c1ccccc1F` [Compound 2a], the viability at 24 h, 10 µM in series [1] and in series [3] was over 70% each time. Moreover, the results for the IC50 in series [2] and in series [4] were 1.33 µM and 2.5 µM, respectively. Also, the pIC50 was 5.88 in series [2] (MDA-MB-231 overexpressing Bcl-3) and 5.60 in series [4] (setting [6]). For the same molecule, the “effect on NF-κB activity” value in series [4] was “significantly decreased NF-κB activity; also recorded: comparable activity with Compound 1a”.
With `O=C(Nc1ccccc1C(=O)NCCN1CCOCC1)c1ccccc1F` [Compound 1a, 2-[(2-fluorobenzoyl)amino]-N-(2-morpholin-4-ylethyl)benzamide], the viability at 24 h, 10 µM in series [1] and in series [3] was over 70% throughout. In addition, the IC50 is 0.31 µM in series [2] and 0.0454 µM in series [4]. Further, the values for the pIC50 in series [2] (setting [5]) and in series [4] (setting [7]) were 6.51 and 7.31, respectively. The migration ability entry in series [2] (MDA-MB-231 cells, 10 μM) is “significantly suppressed migration ability”. Besides, the viability at 24 h, 1 mM in series [3] is 72%. Further, the “effect on NF-κB activity” value in series [4] is given as “significant decrease; also recorded: most potent suppression of NF-κB activity”.

The values above are taken from patent US20220017478A1, “2-BENZOYLAMINOBENZAMIDE DERIVATIVES AS BCL-3 INHIBITORS” (University College Cardiff Consultants Limited, priority 2013, published 2022).
